Test results from patent US6355677B1, “Adrenoleukodystrophy treatments and drug screening” (The Johns Hopkins University, priority 1998, dated 2002).
Where “and” joins values, the source holds several entries; their conditions need not be identical. Identical values can stand only once. Entries after “also recorded” stand apart in the source; their conditions may differ.

What was measured:
[1] = system: human primary fibroblasts; assay: Toxicity in cultured cells; assay type: cell-based; conditions: data not shown
From the text: (§1) The genotypes of the X-ALD patients included midssense, nonsense, ftame shift and deletion mutations and all of the main clinical phenotypes.

[2] = system: mouse primary fibroblasts; assay: Toxicity in cultured cells; assay type: cell-based; conditions: data not shown
From the text: as §1

[3] = system: human X-ALD lymphoblastoid cells; assay: VLCFA (C24:0 and C26:0) levels in cultured cells, capillary GC; assay type: cell-based
Protocol: (§2) Cell lines derived from X-ALD patients and X-ALD mice were grown in MEM (fibroblasts) or RPMI (lymphoblastoid cells) supplemented with fetal calf serum (10%), penicillin (100 U/ml), streptomycin (100 U/ml) and glutamine (2 mM). […] Cells in the second flask were grown without drug for the same length of time and served as controls. The media were changed every 3-4 days.
(§3) For VLCFA measurements, total lipids were extracted, converted to methyl esters, purified by TLC and subjected to capillary GC analysis as described. Duplicate assays were set up independently and were assayed on different days. C24:0 β-oxidation activity of human and mouse fibroblasts and human lymphoblastoid cells was determined by measuring their capacity to degrade [1-^14C]-C24:0 fatty acid (American Radiolabeled Chemicals, St. Louis, Mo.) to water-soluble products as described. Phytanic acid oxidation was measured as described. Cells were incubated with [2,3-^3H]-phytanic acid for 24 hours, and the release of ^3H-H2O to the aqueous medium was determined (activity in pmol/hr per mg protein).

[4] = system: mouse X-ALD primary fibroblasts; assay: as above; assay type: cell-based; conditions: 5 mM; for C24:0 Percent Correction / C24:0 level, Treated / C26:0 Percent Correction / C26:0 level, Treated: X-ALD mouse primary fibroblasts
Protocol: as §2, §3

[5] = system: human X-ALD primary fibroblasts; assay: as above; assay type: cell-based; conditions: for C24:0 level, Treated / C26:0 Percent Correction / C26:0 level, Treated / C24:0 Percent Correction: X-ALD human primary fibroblasts
Protocol: as §2, §3

[6] = system: X-ALD human lymphoblastoid cells; assay: C24:0 β-oxidation ([1-14C]-C24:0 degradation); assay type: cell-based; conditions: 5 mM 4PBA for 6 days
Protocol: as §2, §3

[7] = system: X-ALD mouse primary fibroblasts; assay: C24:0 β-oxidation ([1-14C]-C24:0 degradation); assay type: cell-based; conditions: 5 mM 4PBA for 6 days
Protocol: as §2, §3

[8] = system: X-ALD human primary fibroblasts; assay: C24:0 β-oxidation ([1-14C]-C24:0 degradation); assay type: cell-based; conditions: 5 mM 4PBA for 6 days
Protocol: as §2, §3

[9] = system: human primary fibroblasts; assay: Peroxisome counting by anti-SKL (PTS1) immunofluorescence; assay type: cell-based; conditions: 5 mM
From the text: Peroxisomes were made visible with immunofluorescence using a polyclonal antibody to the C-terminal tripeptide (SKL) peroxisome targeting signal 1 (PTS1), which is present in most peroxisomal matrix proteins. […] We counted the peroxisomes after 10 days of treatment (Table 3). Slides were scanned visually and cells categorized as having low, medium or high numbers of peroxisomes. For each cell line, the number of peroxisomes is the mean of three ‘low’, four ‘medium’ and three ‘high’ cells (Table 3). There was no difference between control cells and X-ALD cells in either the number of peroxisomes per cell or in the response to 4-PBA. […] The 2.4-fold increase in the number of peroxisomes per cell was statistically significant (P<0.0000001, two-tailed Student's t-test). Peroxisome numbers obtained with an antibody against a peroxisomal membrane protein (Pex14p) gave similar results (data not shown).
The anti-SKL (PTSI) antibody was a gift from S. Gould and the anti-Pex11α antibody was a gift from S. Mihalik. To count peroxisomes, we photographed immunofluorescence-stained cells after focusing on the cell nucleus, and determined the peroxisome number per cell with the aid of a colon counter after projecting the slides to enlarge the image.

ALDP = ALDP stabilization, immunofluorescence with anti-ALDP antibody; assay type: cell-based, human; conditions: X-ALD fibroblasts with destabilizing missense mutations (A626T, R660W), 5 mM for up to 10 days
X-ALD mice = assay: In vivo efficacy: VLCFA levels in brain and adrenal glands after dietary treatment; parameters: species or system mouse
Protocol: To measure the in vivo efficacy of 4-PBA, we supplemented mouse chow and water with 4-PBA.
In vivo delivery of 4-PBA to X-ALD mice. 4-PBA was delivered to X-ALD mice in their regular chow and water. 4-PBA chow was prepared by B'OServ (Holton Industries, Frenchtown, N.J.). […] Brains and adrenal glands from normal LD and X-ALD/4-PBA mice were collected for VLCFA analysis as described.

[10] = used for many years in patients; cited from earlier work
[11] = X-ALD human lymphoblastoid cells, 5 mM, exposure 6 days
[12] = X-ALD human lymphoblastoid cells, 5 mM, exposure 10 days
[13] = between 1 mM and 5 mM, data not shown
[14] = dietary 4-PBA (about 70 mg per day), 6 weeks

O=C(O)CCCc1ccccc1 [4-PBA, 4-Phenyl butyrate]
Toxic concentration [1]: exceeding 7.5 mM
Toxic concentration [2]: exceeding 7.5 mM
Time of treatment until C24:0 and C26:0 levels were normalized ([3]; 5 mM, human lymphoblastoid cells): ≤ 10 days
C24:0 level, Treated [3, 11]: 0.65 ± 0.17% of total fatty acids
C26:0 Percent Correction [3, 11]: 71%
C26:0 level, Treated [3, 11]: 0.11 ± 0.05% of total fatty acids
C24:0 Percent Correction [3, 12]: 161%
C24:0 level, Treated [3, 12]: 0.54 ± 0.16% of total fatty acids
C26:0 Percent Correction [3, 12]: 90%
C26:0 level, Treated [3, 12]: 0.09 ± 0.05% of total fatty acids
Effect on VLCFA levels over concentration range [3, 13]: dose-dependent decrease
Time of treatment until C24:0 and C26:0 levels were normalized ([4]; mouse fibroblasts): ≤ 10 days
C24:0 Percent Correction ([4]; exposure 5 days): 115%
C24:0 level, Treated ([4]; exposure 5 days): 1.10 ± 0.15% of total fatty acids
C26:0 Percent Correction ([4]; exposure 5 days): 92%
C26:0 level, Treated ([4]; exposure 5 days): 0.07 ± 0.03% of total fatty acids
C24:0 Percent Correction ([4]; exposure 9 days): 152%
C24:0 level, Treated ([4]; exposure 9 days): 0.87 ± 0.04% of total fatty acids
C26:0 Percent Correction ([4]; exposure 9 days): 100%
C26:0 level, Treated ([4]; exposure 9 days): 0.05 ± 0.01% of total fatty acids
Time of treatment until C24:0 levels were normalized ([5]; 5 mM, human X-ALD fibroblasts): ≤ 10 days
C24:0 level, Treated ([5]; 5 mM, exposure 1 day): 2.65 ± 0.36% of total fatty acids
C26:0 Percent Correction ([5]; 5 mM, exposure 1 day): 2%
C26:0 level, Treated ([5]; 5 mM, exposure 1 day): 0.51 ± 0.14% of total fatty acids
C24:0 Percent Correction ([5]; 5 mM, exposure 1 day, untreated X-ALD 0%, normal 100%): −1%
C24:0 Percent Correction ([5]; 5 mM, exposure 6 days): 81%
C24:0 level, Treated ([5]; 5 mM, exposure 6 days): 1.82 ± 0.28% of total fatty acids
C26:0 Percent Correction ([5]; 5 mM, exposure 6 days): 26%
C26:0 level, Treated ([5]; 5 mM, exposure 6 days): 0.41 ± 0.04% of total fatty acids
C24:0 Percent Correction ([5]; 5 mM, exposure 12 days): 155%
C24:0 level, Treated ([5]; 5 mM, exposure 12 days): 1.43 ± 0.34% of total fatty acids
C26:0 Percent Correction ([5]; 5 mM, exposure 12 days): 33%
C26:0 level, Treated ([5]; 5 mM, exposure 12 days): 0.31 ± 0.06% of total fatty acids
C24:0 Percent Correction ([5]; 5 mM, exposure 16 days): 96%
C24:0 level, Treated ([5]; 5 mM, exposure 16 days): 1.69 ± 0.27% of total fatty acids
C26:0 Percent Correction ([5]; 5 mM, exposure 16 days): 38%
C26:0 level, Treated ([5]; 5 mM, exposure 16 days): 0.28 ± 0.03% of total fatty acids
C24:0 Percent Correction ([5]; 5 mM, exposure 22 days): 128%
C24:0 level, Treated ([5]; 5 mM, exposure 22 days): 1.52 ± 0.14% of total fatty acids
C26:0 Percent Correction ([5]; 5 mM, exposure 22 days): 47%
C26:0 level, Treated ([5]; 5 mM, exposure 22 days): 0.27 ± 0.04% of total fatty acids
Effect on VLCFA levels over concentration range [5, 13]: dose-dependent decrease
C24:0 β-oxidation, Increase (treated over untreated) [6]: twofold to threefold
C24:0 β-oxidation, Treated (mean specific activity) [6]: 0.18 ± 0.03 nmol/hr per mg protein
C24:0 β-oxidation, Increase (treated over untreated) [7]: twofold to threefold
C24:0 β-oxidation, Treated (mean specific activity) [7]: 0.28 ± 0.03 nmol/hr per mg protein
C24:0 β-oxidation, Increase (treated over untreated) [8]: twofold to threefold
C24:0 β-oxidation, Treated (mean specific activity) [8]: 0.39 ± 0.07 nmol/hr per mg protein
Increase in number of peroxisomes per cell ([9]; 10 days): 2.4 fold
Peroxisomes per cell after exposure ([9]; 10 days, five X-ALD and four control cell lines combined, 416±27 before exposure): 1014±108 peroxisomes per cell
Increase in peroxisome number ([9]; human X-ALD primary fibroblasts, 8 days): approximately twofold
Detectable ALDP after treatment (ALDP): did not result in detectable levels of ALDP
Correction of brain C24:0 (X-ALD mice; [14]): complete correction; also recorded: complete normalization
Correction of brain C26:0 (X-ALD mice; [14]): 78% and 80%
Adrenal gland VLCFA (C24:0 and C26:0) levels (X-ALD mice; dietary 4-PBA, 4 weeks): substantial reduction
Brain VLCFA (C24:0 and C26:0) levels (X-ALD mice; dietary 4-PBA, 4 weeks): substantial reduction
Side effects [10]: few, if any, side effects
